Where a name gives a salt, the structure may show the parent alone.
Tests used:
Assay type in all cases: cell-based
[1] = system: Acinetobacter baumannii XNWB 0007; test: MIC assay of test compounds combined with ceftazidime (8 μg/mL); conditions: ceftazidime 8 μg/mL fixed
Procedure, shortened: (§1)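 Antibiotic potentiation test: compound serially diluted, partner β-lactam at constant concentration, CAMHB medium, saline-standardised inoculum (OD600 0.1-0.15) diluted 300-fold. Incubated 16-20 h at 35±2 °C.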

[2] = system: Klebsiella pneumoniae XNWB 0001; test: as above; conditions: ceftazidime 8 μg/mL fixed
Procedure, shortened: as §1

[3] = system: Klebsiella pneumoniae XNWB 0002; test: as above; conditions: ceftazidime 8 μg/mL fixed
Procedure, shortened: as §1

[4] = system: Klebsiella pneumoniae XNWB 0003; test: as above; conditions: ceftazidime 8 μg/mL fixed
Procedure, shortened: as §1

[5] = system: Klebsiella pneumoniae XNWB 0004; test: as above; conditions: ceftazidime 8 μg/mL fixed
Procedure, shortened: as §1

[6] = system: Klebsiella pneumoniae XNWB 0005; test: as above; conditions: ceftazidime 8 μg/mL fixed
Procedure, shortened: as §1

[7] = system: Klebsiella pneumoniae XNWB 0006; test: as above; conditions: ceftazidime 8 μg/mL fixed
Procedure, shortened: as §1

[8] = system: Pseudomonas aeruginosa XNWB 0008; test: as above; conditions: ceftazidime 8 μg/mL fixed
Procedure, shortened: as §1

[9] = system: Acinetobacter baumannii XNWB 0007; test: MIC assay of test compounds combined with imipenem (4 μg/mL); conditions: imipenem 4 μg/mL fixed
Procedure, shortened: as §1

[10] = system: Klebsiella pneumoniae XNWB 0001; test: as above; conditions: imipenem 4 μg/mL fixed
Procedure, shortened: as §1

[11] = system: Klebsiella pneumoniae XNWB 0002; test: as above; conditions: imipenem 4 μg/mL fixed
Procedure, shortened: as §1

[12] = system: Klebsiella pneumoniae XNWB 0003; test: as above; conditions: imipenem 4 μg/mL fixed
Procedure, shortened: as §1

[13] = system: Klebsiella pneumoniae XNWB 0004; test: as above; conditions: imipenem 4 μg/mL fixed
Procedure, shortened: as §1

[14] = system: Klebsiella pneumoniae XNWB 0005; test: as above; conditions: imipenem 4 μg/mL fixed
Procedure, shortened: as §1

[15] = system: Klebsiella pneumoniae XNWB 0006; test: as above; conditions: imipenem 4 μg/mL fixed
Procedure, shortened: as §1

[16] = system: Pseudomonas aeruginosa XNWB 0008; test: as above; conditions: imipenem 4 μg/mL fixed
Procedure, shortened: as §1

SMILES | The minimum concentration of test compounds combined with ceftazidime (8 μg/mL) for bacteriostasis [1] | The minimum concentration of test compounds combined with ceftazidime (8 μg/mL) for bacteriostasis [2] | The minimum concentration of test compounds combined with ceftazidime (8 μg/mL) for bacteriostasis [3] | The minimum concentration of test compounds combined with ceftazidime (8 μg/mL) for bacteriostasis [4] | The minimum concentration of test compounds combined with ceftazidime (8 μg/mL) for bacteriostasis [5] | The minimum concentration of test compounds combined with ceftazidime (8 μg/mL) for bacteriostasis [6] | The minimum concentration of test compounds combined with ceftazidime (8 μg/mL) for bacteriostasis [7] | The minimum concentration of test compounds combined with ceftazidime (8 μg/mL) for bacteriostasis [8] | The minimum concentration of test compounds combined with imipenem (4 μg/mL) for bacteriostasis [9] | The minimum concentration of test compounds combined with imipenem (4 μg/mL) for bacteriostasis [10] | The minimum concentration of test compounds combined with imipenem (4 μg/mL) for bacteriostasis [11] | The minimum concentration of test compounds combined with imipenem (4 μg/mL) for bacteriostasis [12] | The minimum concentration of test compounds combined with imipenem (4 μg/mL) for bacteriostasis [13] | The minimum concentration of test compounds combined with imipenem (4 μg/mL) for bacteriostasis [14] | The minimum concentration of test compounds combined with imipenem (4 μg/mL) for bacteriostasis [15] | The minimum concentration of test compounds combined with imipenem (4 μg/mL) for bacteriostasis [16]
NCCCc1nnc([C@@H]2CC3(CC3)[C@@H]3CN2C(=O)N3OS(=O)(=O)O)o1 [Example 6, sodium (1R,4S)-4-(5-(3-aminopropyl)-1,3,4-oxadiazol-2-yl)-6-oxo-5,7-diazaspiro [bicycle[3.2.1]octane-2,1′-cyclopropan]-7-yl sulfate] | C (C: 16-128 μg/mL) | A (A: <8 μg/mL) | A (A: <8 μg/mL) | B (B: 8-16 μg/mL) | B (B: 8-16 μg/mL) | B (B: 8-16 μg/mL) | A (A: <8 μg/mL) | C (C: 16-128 μg/mL) | B (B: 8-16 μg/mL) | A (A: <8 μg/mL) | A (A: <8 μg/mL) | A (A: <8 μg/mL) | A (A: <8 μg/mL) | A (A: <8 μg/mL) | A (A: <8 μg/mL) | B (B: 8-16 μg/mL)
N=C(N)N1CC(NCc2cc([C@@H]3CC4(CC4)[C@@H]4CN3C(=O)N4OS(=O)(=O)O)no2)C1 [Example 51, (1R,4S)-4-(5-(((1-amidinoazetidin-3-yl)amino)methyl)isoxazol-3-yl)-6-oxo-5,7-diazaspiro[bicyclo[3.2.1]octane-2,1′-cyclopropan]-7-yl sulfate] | C (C: 16-128 μg/mL) | A (A: <8 μg/mL) | A (A: <8 μg/mL) | B (B: 8-16 μg/mL) | C (C: 16-128 μg/mL) | B (B: 8-16 μg/mL) | A (A: <8 μg/mL) | B (B: 8-16 μg/mL) | C (C: 16-128 μg/mL) | A (A: <8 μg/mL) | A (A: <8 μg/mL) | A (A: <8 μg/mL) | A (A: <8 μg/mL) | A (A: <8 μg/mL) | A (A: <8 μg/mL) | A (A: <8 μg/mL)
CNCCNC[C@H](O)c1nnc([C@@H]2CC3(CC3)[C@@H]3CN2C(=O)N3OS(=O)(=O)O)o1 [Example 30, (1R,4S)-4-(5-((S)-1-hydroxy-2-((2-(methylamino)ethyl)amino)ethyl)-1,3,4-oxadiazol-2-yl)-6-oxo-5,7-diazaspiro[bicyclo[3.2.1]octane-2,1′-cyclopropan]-7-yl sulfate] | C (C: 16-128 μg/mL) | B (B: 8-16 μg/mL) | A (A: <8 μg/mL) | A (A: <8 μg/mL) | B (B: 8-16 μg/mL) | B (B: 8-16 μg/mL) | A (A: <8 μg/mL) | C (C: 16-128 μg/mL) | B (B: 8-16 μg/mL) | A (A: <8 μg/mL) | A (A: <8 μg/mL) | A (A: <8 μg/mL) | A (A: <8 μg/mL) | A (A: <8 μg/mL) | A (A: <8 μg/mL) | C (C: 16-128 μg/mL)
N=C1NCC(c2nnc([C@@H]3CC4(CC4)[C@@H]4CN3C(=O)N4OS(=O)(=O)O)o2)N1 (stereo partly drawn) [Example 8, (1R,4S)-4-(5-(2-iminoimidazolidin-4-yl)-1,3,4-oxadiazol-2-yl)-6-oxo-5,7-diazaspiro [bicyclo[3.2.1]octane-2,1′-cyclopropan]-7-yl sulfate] | C (C: 16-128 μg/mL) | A (A: <8 μg/mL) | A (A: <8 μg/mL) | A (A: <8 μg/mL) | A (A: <8 μg/mL) | A (A: <8 μg/mL) | A (A: <8 μg/mL) | B (B: 8-16 μg/mL) | A (A: <8 μg/mL) | A (A: <8 μg/mL) | A (A: <8 μg/mL) | A (A: <8 μg/mL) | A (A: <8 μg/mL) | A (A: <8 μg/mL) | A (A: <8 μg/mL) | A (A: <8 μg/mL)
NC(=O)[C@@H]1CC[C@@H]2CN1C(=O)N2OS(=O)(=O)O [Avibactam, reference compound] | C (C: 16-128 μg/mL) | A (A: <8 μg/mL) | A (A: <8 μg/mL) | A (A: <8 μg/mL) | A (A: <8 μg/mL) | A (A: <8 μg/mL) | A (A: <8 μg/mL) | A (A: <8 μg/mL) | C (C: 16-128 μg/mL) | A (A: <8 μg/mL) | A (A: <8 μg/mL) | A (A: <8 μg/mL) | A (A: <8 μg/mL) | A (A: <8 μg/mL) | A (A: <8 μg/mL) | A (A: <8 μg/mL)

Source: patent US11078202B2, “β-lactamase inhibitor and use thereof” (priority 2018, dated 2021)
